Source: patent US20100056526A1, “HETEROMONOCYCLIC COMPOUND AND USE THEREOF” (Takeda Pharmaceutical Company Limited, priority 2006, published 2010)

Key:
[1] = target: T1, PPARγ (Homo sapiens, UniProt P37231); experiment: Evaluation of PPARγ activating action (luciferase reporter in PPARγ:RXRα:4ERPP/CHO-K1 cells); assay type: cell-based; conditions: CHO-K1, 24 h; test compound 10^−6 M; luciferase activity relative to control compound X (1 μM) = 100%, non-administration group = 0%; read-out: PPARγ activating action (activation % (10^−6 M))
T1 construct: expressed in transfected cells; host or cells: CHO-K1
T1 sequence (P37231 1-477 isoform P37231-2): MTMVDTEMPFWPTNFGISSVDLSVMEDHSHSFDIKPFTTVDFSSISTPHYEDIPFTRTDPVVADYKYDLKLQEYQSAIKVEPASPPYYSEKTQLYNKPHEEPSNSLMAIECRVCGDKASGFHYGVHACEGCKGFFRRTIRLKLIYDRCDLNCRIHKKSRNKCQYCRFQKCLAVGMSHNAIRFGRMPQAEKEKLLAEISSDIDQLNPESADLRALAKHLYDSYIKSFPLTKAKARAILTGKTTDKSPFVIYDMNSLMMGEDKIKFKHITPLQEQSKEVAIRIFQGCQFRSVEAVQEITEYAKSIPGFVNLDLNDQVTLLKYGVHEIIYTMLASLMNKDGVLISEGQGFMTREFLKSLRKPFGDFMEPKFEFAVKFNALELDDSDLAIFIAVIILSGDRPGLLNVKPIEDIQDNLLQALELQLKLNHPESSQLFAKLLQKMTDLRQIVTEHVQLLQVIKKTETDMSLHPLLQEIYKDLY
T1 sequence (P19793 1-462 partner): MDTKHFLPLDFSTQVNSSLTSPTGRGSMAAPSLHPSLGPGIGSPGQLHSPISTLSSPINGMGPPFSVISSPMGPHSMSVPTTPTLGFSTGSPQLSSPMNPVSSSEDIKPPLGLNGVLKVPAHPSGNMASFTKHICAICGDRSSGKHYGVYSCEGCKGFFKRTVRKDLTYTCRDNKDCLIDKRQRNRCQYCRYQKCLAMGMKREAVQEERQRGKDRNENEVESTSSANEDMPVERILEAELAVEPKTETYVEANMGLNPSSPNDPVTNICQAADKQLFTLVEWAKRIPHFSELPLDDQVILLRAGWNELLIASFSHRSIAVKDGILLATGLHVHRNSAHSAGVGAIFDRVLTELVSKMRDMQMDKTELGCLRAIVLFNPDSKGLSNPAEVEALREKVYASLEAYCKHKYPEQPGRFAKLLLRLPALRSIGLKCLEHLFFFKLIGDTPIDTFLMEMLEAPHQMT
Outline: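 CHO-K1 cells stably carrying PPARγ, RXRα and a 4ERPP luciferase reporter were treated with compound for 1 day at 37 °C in F12 medium with 0.1% fatty acid-free BSA. Luciferase activity was read and scaled between no compound (0%) and reference agonist compound X at 1 μM (100%).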

[2] = target: T2, human AT1 receptor (Homo sapiens, UniProt P30556); experiment: Binding assay using human AT1 receptor-expressing CHO-K1 cell membrane fraction ([125I]-angiotensin II); conditions: 22.5 pM [125I]-angiotensin II, 9 μg AT1 membrane, 1 hr room temperature; read-out: AT1 receptor binding inhibitory action (IC50 (nM))
T2 construct: expressed in transfected cells; host or cells: CHO-K1
T2 sequence (P30556 1-359): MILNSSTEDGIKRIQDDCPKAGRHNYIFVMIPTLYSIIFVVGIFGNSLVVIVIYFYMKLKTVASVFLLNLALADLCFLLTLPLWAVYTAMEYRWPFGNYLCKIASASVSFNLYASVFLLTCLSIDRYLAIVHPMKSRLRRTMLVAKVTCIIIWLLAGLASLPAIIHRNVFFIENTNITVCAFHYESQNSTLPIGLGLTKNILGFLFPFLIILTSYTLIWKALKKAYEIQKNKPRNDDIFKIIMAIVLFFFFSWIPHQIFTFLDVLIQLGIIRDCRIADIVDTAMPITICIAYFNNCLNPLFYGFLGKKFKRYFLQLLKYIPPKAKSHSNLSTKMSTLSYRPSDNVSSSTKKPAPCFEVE
Outline: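 CHO-K1 membranes stably expressing AT1 (9 μg) incubated with 22.5 pM [125I]-angiotensin II and compound in 50 mM Tris pH 7.4, 10 mM MgCl2, with or without 0.3 mg/mL fatty acid-free BSA, 1 hr at room temperature. Bound radioactivity counted after GF/C filtration; nonspecific binding with 1 μM CV-11974; IC50 calculated.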

Row | Compound | activation at 1 µM [1] | IC50 [2]
1 | CCCc1nc(C)n(-c2ccc(OC(C)C)cc2)c(=O)c1Cc1ccc(-c2ccccc2-c2noc(=O)[nH]2)c(F)c1 [Example 401, 5-{[2-fluoro-2′-(5-oxo-4,5-dihydro-1,2,4-oxadiazol-3-yl)biphenyl-4-yl]methyl}-3-(4-isopropoxyphenyl)-2-methyl-6-propylpyrimidin-4(3H)-one] | 25.3% | 1.5 nM
2 | CCCc1nc(C)n(-c2ccc3c(c2)CC(C)(C)O3)c(=O)c1Cc1ccc(-c2ccccc2-c2noc(O)n2)c(F)c1 [Example 402, 3-(2,2-dimethyl-2,3-dihydro-1-benzofuran-5-yl)-5-{[2-fluoro-2′-(5-oxo-4,5-dihydro-1,2,4-oxadiazol-3-yl)biphenyl-4-yl]methyl}-2-methyl-6-propylpyrimidin-4(3H)-one] | 24.1% | 1.8 nM
3 | CCCc1nc(CC)n(-c2ccc(OC3CCOCC3)nc2)c(=O)c1Cc1ccc(-c2ccccc2-c2noc(=O)[nH]2)cc1 [Example 406, 2-ethyl-5-{[2′-(5-oxo-4,5-dihydro-1,2,4-oxadiazol-3-yl)biphenyl-4-yl]methyl}-6-propyl-3-[6-(tetrahydro-2H-pyran-4-yloxy)pyridin-3-yl]pyrimidin-4(3H)-one] | 41.9% | 1.5 nM
4 | C=COc1ccc(-n2c(C)nc(CCC)c(Cc3ccc(-c4ccccc4-c4noc(=O)[nH]4)cc3F)c2=O)cc1 [Example 408, 5-{[3-fluoro-2′-(5-oxo-4,5-dihydro-1,2,4-oxadiazol-3-yl)biphenyl-4-yl]methyl}-2-methyl-6-propyl-3-[4-(vinyloxy)phenyl]pyrimidin-4(3H)-one] | 48.7% | 1.4 nM
5 | CCCc1nc(CC)n(-c2ccc(OC3CCOC(C)(C)C3)cc2)c(=O)c1Cc1ccc(-c2ccccc2-c2noc(=O)[nH]2)cc1 (stereo not shown) [Example 413, 3-{4-[(2,2-dimethyltetrahydro-2H-pyran-4-yl)oxy]phenyl}-2-ethyl-5-{[2′-(5-oxo-4,5-dihydro-1,2,4-oxadiazol-3-yl)biphenyl-4-yl]methyl}-6-propylpyrimidin-4(3H)-one] | 18.9% | 1.7 nM
6 | CCCc1nc(CC)n(-c2ccc(O[C@H]3CC[C@H](O)CC3)cc2)c(=O)c1Cc1ccc(-c2ccccc2-c2noc(=O)[nH]2)cc1 [Example 414, 2-ethyl-3-{4-[(trans-4-hydroxycyclohexyl)oxy]phenyl}-5-{[2′-(5-oxo-4,5-dihydro-1,2,4-oxadiazol-3-yl)biphenyl-4-yl]methyl}-6-propylpyrimidin-4(3H)-one] | 45% | 1.1 nM
7 | CCCc1nc(CC)n(-c2ccc(O[C@H]3CC[C@@H](O)CC3)cc2)c(=O)c1Cc1ccc(-c2ccccc2-c2noc(=O)[nH]2)cc1 [Example 415, 2-ethyl-3-{4-[(cis-4-hydroxycyclohexyl)oxy]phenyl}-5-{[2′-(5-oxo-4,5-dihydro-1,2,4-oxadiazol-3-yl)biphenyl-4-yl]methyl}-6-propylpyrimidin-4(3H)-one] | 49.7% | 1 nM

The next lines start with the values.

Row | activation at 1 µM [1] | IC50 [2] | Compound
8 | 53.5% | 1.2 nM | CCCc1nc(CC)n(-c2ccc(OC3CCC(=O)CC3)cc2)c(=O)c1Cc1ccc(-c2ccccc2-c2noc(=O)[nH]2)cc1 [Example 416, 2-ethyl-3-{4-[(4-oxocyclohexyl)oxy]phenyl}-5-{[2′-(5-oxo-4,5-dihydro-1,2,4-oxadiazol-3-yl)biphenyl-4-yl]methyl}-6-propylpyrimidin-4(3H)-one]
9 | 33.7% | 1.6 nM | CCCc1nc(CC)n(-c2ccc(O[C@@H]3C[C@@H](C)O[C@@H](C)C3)cc2)c(=O)c1Cc1ccc(-c2ccccc2-c2noc(=O)[nH]2)cc1 [Example 417, 3-(4-{[(2R,4s,6S)-2,6-dimethyltetrahydro-2H-pyran-4-yl]oxy}phenyl)-2-ethyl-5-{[2′-(5-oxo-4,5-dihydro-1,2,4-oxadiazol-3-yl)biphenyl-4-yl]methyl}-6-propylpyrimidin-4(3H)-one]
10 | 27.2% | 1.3 nM | CCCc1nc(CC)n(-c2ccc(OC3(CO)CCC3)cc2)c(=O)c1Cc1ccc(-c2ccccc2-c2noc(=O)[nH]2)cc1 [Example 419, 2-ethyl-3-(4-{[1-(hydroxymethyl)cyclobutyl]oxy}phenyl)-5-{[2′-(5-oxo-4,5-dihydro-1,2,4-oxadiazol-3-yl)biphenyl-4-yl]methyl}-6-propylpyrimidin-4(3H)-one]
11 | 22.2% | 0.9 nM | CCCc1nc(CC)n(-c2ccc(OC3CCCC(O)C3)cc2)c(=O)c1Cc1ccc(-c2ccccc2-c2noc(=O)[nH]2)cc1 (stereo not shown) [Example 422, 2-ethyl-3-{4-[(3-hydroxycyclohexyl)oxy]phenyl}-5-{[2′-(5-oxo-4,5-dihydro-1,2,4-oxadiazol-3-yl)biphenyl-4-yl]methyl}-6-propylpyrimidin-4(3H)-one]
12 | 33.5% | 1.3 nM | CCCc1nc(CC)n(-c2ccc(OC3CCOC(C)C3)cc2)c(=O)c1Cc1ccc(-c2ccccc2-c2noc(=O)[nH]2)cc1 (stereo not shown) [Example 424, 2-ethyl-3-{4-[(2-methyltetrahydro-2H-pyran-4-yl)oxy]phenyl}-5-{[2′-(5-oxo-4,5-dihydro-1,2,4-oxadiazol-3-yl)biphenyl-4-yl]methyl}-6-propylpyrimidin-4(3H)-one]
13 | 37.5% | 1.2 nM | CCCc1nc(CC)n(-c2ccc(OC3CCC(O)C3)cc2)c(=O)c1Cc1ccc(-c2ccccc2-c2noc(=O)[nH]2)cc1 (stereo not shown) [Example 425, 2-ethyl-3-{4-[(3-hydroxycyclopentyl)oxy]phenyl}-5-{[2′-(5-oxo-4,5-dihydro-1,2,4-oxadiazol-3-yl)biphenyl-4-yl]methyl}-6-propylpyrimidin-4(3H)-one]
14 | 17.7% | 1.4 nM | CCCCc1nc(C)n(-c2ccc(OC(C)(C)COC)cc2)c(=O)c1Cc1ccc(-c2ccccc2-c2noc(=O)[nH]2)cc1 [Example 427, 6-butyl-3-[4-(2-methoxy-1,1-dimethylethoxy)phenyl]-2-methyl-5-{[2′-(5-oxo-4,5-dihydro-1,2,4-oxadiazol-3-yl)biphenyl-4-yl]methyl}pyrimidin-4(3H)-one]
15 | 18.1% | 1 nM | CCCc1nc(C)n(-c2ccc(OC3CCCC(=O)CC3)cc2)c(=O)c1Cc1ccc(-c2ccccc2-c2noc(=O)[nH]2)cc1 (stereo not shown) [Example 437, 2-methyl-3-{4-[(4-oxocycloheptyl)oxy]phenyl}-5-{[2′-(5-oxo-4,5-dihydro-1,2,4-oxadiazol-3-yl)biphenyl-4-yl]methyl}-6-propylpyrimidin-4(3H)-one]
16 | 20.1% | 1.4 nM | CCCc1nc(C)n(-c2ccc(OC(C)(C)C(C)O)cc2)c(=O)c1Cc1ccc(-c2ccccc2-c2noc(=O)[nH]2)cc1 (stereo not shown) [Example 439, 3-[4-(2-hydroxy-1,1-dimethylpropoxy)phenyl]-2-methyl-5-{[2′-(5-oxo-4,5-dihydro-1,2,4-oxadiazol-3-yl)biphenyl-4-yl]methyl}-6-propylpyrimidin-4(3H)-one]
17 | 29.9% | 1.6 nM | CCCc1nc(C)n(-c2ccc(OC(C)(C)C(C)=O)cc2)c(=O)c1Cc1ccc(-c2ccccc2-c2noc(=O)[nH]2)cc1 [Example 440, 3-[4-(1,1-dimethyl-2-oxopropoxy)phenyl]-2-methyl-5-{[2′-(5-oxo-4,5-dihydro-1,2,4-oxadiazol-3-yl)biphenyl-4-yl]methyl}-6-propylpyrimidin-4(3H)-one]
